{"source": "the NIST ThermoML archive (doi:10.1021/acs.jced.5b01024)", "assay": "refractive index (Na D-line) (dimensionless)", "details": "294.15 K; 100 kPa; Liquid; Standard Abbe refractometry", "note": "± gives the expanded uncertainty stated by the source."}
{"smiles": "CCCCO", "note": "[butan-1-ol]", "values": [{"measurement": "refractive index", "value": "1.39782 ± 0.00042"}]}
{"smiles": "CCCO", "note": "[propan-1-ol]", "values": [{"measurement": "refractive index", "value": "1.3846 ± 0.00042"}]}
{"smiles": "O", "note": "[water]", "values": [{"measurement": "refractive index", "value": "1.33285 ± 0.00042"}]}
